Experimental data published in patent publication US20090227563A1, “HERBICIDAL COMPOSITIONS HAVING IMPROVED EFFECT” (Bayer CropScience AG, priority 2005, published 2009).
Values joined by “and” are separate entries in the source; they are usually repeats but may differ in a detail not shown here. Equal entries are not always repeated.

Assays:
Assay type in all cases: in vivo
[1] = test system: Bromus erectus (BROER); assay: Glasshouse trial on activity boost, post-emergence spraying, visual rating; settings: 5 g/ha
Description: (§1) Seeds of monocot and dicot weeds and crop plants are sown in sandy loam soil in wood fibre pots or in plastic pots, and are covered with soil and cultivated under good growth conditions in the glasshouse and also, during the vegetation period, outdoors outside the glasshouse. 2-3 weeks after sowing, the trial plants are treated at the one- to three-leaf stage. The test compounds, formulated as wettable powders (WP) or liquids (EC), are applied by spraying to the plants and the soil surface in various doses, with a water application rate of 300 l/ha (converted) and with the addition of penetrants (0.2% to 0.4%) and where appropriate an ammonium salt. After the trial plants had stood in the glasshouse for about 3 to 4 weeks under optimum growth conditions, the activity of the products was rated visually in comparison to untreated controls (activity in %, i.e. 0%=no activity or as control, 100%=all plants died).
(§2) ALOMY=Alopecurus myosuroides AVEFA=Avena fatua LOLMU=Lolium multiflorum SETVI=Setaria viridis BROER=Bromus erectus

[2] = test system: Avena fatua (AVEFA); assay: Plot trials (about 10 m2, 9 trials), post-emergence treatment; settings: 5 g/ha, sum of all trials
Description: (§3) In plots measuring approximately 10 m^2, in 9 trials, post-emergence treatments were carried out in 2-3 repetitions with compound (I-1-c-1). The weed population was the natural population and/or a sown population specifically geared to the objective. The active ingredient (I-1-c-1) was delivered as an EC formulation at the stated application rates with a penetrant of the formula (III-c-1) at a concentration of 0.3 g/l in 300 l of water, as a tank mix. In the elements of the trial with ammonium sulphate (AMS) the salt was added at 1 g/l to the spray liquor. Evaluation was made on the day of maximum activity. The activities reported in Table 5 are those obtained over the sum of all the trials.
(§4) AGRRE=Agropyron repens ALOMY=Alopecurus myosuroides AVEFA=Avena fatua

[3] = test system: Alopecurus myosuroides (ALOMY); assay: as above; settings: 5 g/ha, sum of all trials
Description: as §3, §4

[4] = test system: Agropyron repens (AGRRE); assay: as above; settings: 5 g/ha, sum of all trials
Description: as §3, §4

[5] = test system: Avena fatua (AVEFA); assay: Glasshouse trial on activity boost, post-emergence spraying, visual rating
Description: as §1
(§5) For rapeseed oil methyl ester (RME) the following tables specify concentration in % a.i. by volume for ammonium sulphate (AMS) in g/l in the spray liquor.
(§6) ALOMY=Alopecurus myosuroides AVEFA=Avena fatua LOLMU=Lolium multiflorum LOLRI=Lolium rigidum
(§7) ALOMY=Alopecurus myosuroides AVEFA=Avena fatua LOLMU=Lolium multiflorum SETVI=Setaria viridis
as §2

[6] = test system: Alopecurus myosuroides (ALOMY); assay: as above
Description: as §1, §5, §6, §7, §2

[7] = test system: LOLME; assay: as above; settings: 5 g/ha
Description: as §1

[8] = test system: APESV; assay: as above; settings: 5 g/ha
Description: as §1

[9] = test system: Lolium rigidum (LOLRI); assay: as above
Description: as §1, §5, §6

[10] = test system: Lolium multiflorum (LOLMU); assay: as above
Description: as §1, §5, §6, §7

[11] = test system: Setaria viridis (SETVI); assay: as above
Description: as §1, §5, §7

[12] = Genapol LRO (0.33%) + AMS (3.3 g/l)
[13] = (III-c-1) (0.3 g/l) + AMS (1 g/l)
[14] = 5 g/ha, Genapol LRO (0.33%) + AMS (3.3 g/l)
[15] = 50 g/ha, RME (0.25%) + AMS (6.6 g/l)
[16] = 25 g/ha, RME (0.25%) + AMS (3.3 g/l)
[17] = 50 g/ha, RME (0.25%) + AMS (3.3 g/l)
[18] = 12.5 g/ha, RME (0.25%) + AMS (3.3 g/l)

CCOC(=O)OC1=C(c2c(CC)cc(Cl)cc2OC)C(=O)NC12CCC(OC)CC2 (centres unmarked) [I-1-c-1]
Activity ([1]; Genapol LRO (0.33%)): 73%
Activity [1, 12]: 97%
Activity [2, 13]: 90%
Activity ([2]; (III-c-1) (0.3 g/l)): 80%
Activity [3, 13]: 72%
Activity ([3]; (III-c-1) (0.3 g/l)): 67%
Activity [4, 13]: 90%
Activity ([4]; (III-c-1) (0.3 g/l)): 80%
Activity ([5]; 5 g/ha, Genapol LRO (0.33%)): 75%
Activity [5, 14]: 100%
Activity ([6]; 5 g/ha, Genapol LRO (0.33%)): 73%
Activity [6, 14]: 99%
Activity ([7]; Genapol LRO (0.33%)): 86%
Activity [7, 12]: 97%
Activity ([8]; Genapol LRO (0.33%)): 93%
Activity [8, 12]: 97%

CCc1cc(-c2ccc(Cl)cc2)cc(C)c1C1=C(O)C2(CCC(OC)CC2)OC1=O (centres unmarked) [I-2-a-1]
Activity ([9]; 25 g/ha, RME (0.25%)): 20%
Activity ([9]; 50 g/ha, RME (0.25%)): 40%
Activity [9, 15]: 80% and 40%
Activity ([10]; 25 g/ha, RME (0.25%)): 30%
Activity ([10]; 50 g/ha, RME (0.25%)): 70%
Activity ([6]; 50 g/ha, RME (0.25%)): 30%
Activity [6, 15]: 70%
Activity ([6]; 100 g/ha, RME (0.25%)): 30%
Activity ([6]; 100 g/ha, RME (0.25%) + AMS (6.6 g/l)): 70%

CC1=CC(=O)C(c2c(C)cc(C)cc2C)C(=O)O1 (centres unmarked) [I-4-a-1]
Activity ([11]; 25 g/ha, RME (0.25%)): 0%
Activity [11, 16]: 20%
Activity ([11]; 50 g/ha, RME (0.25%)): 0%
Activity [11, 17]: 90%
Activity ([11]; 100 g/ha, RME (0.25%)): 0%
Activity ([11]; 100 g/ha, RME (0.25%) + AMS (3.3 g/l)): 90%

CCc1cc(C)cc(C)c1C1C(=O)CC2(CCCCC2)C1=O (centres unmarked) [I-6-a-1]
Activity ([11]; 12.5 g/ha, RME (0.25%)): 0%
Activity [11, 18]: 25%
Activity ([11]; 25 g/ha, RME (0.25%)): 15%
Activity [11, 16]: 90%
Activity ([11]; 50 g/ha, RME (0.25%)): 25%
Activity [11, 17]: 90%

CCc1cc(C)cc(CC)c1C1C(=O)[C@H]2CCCC[C@@H]2C1=O [I-6-a-2]
Activity ([10]; 12.5 g/ha, RME (0.25%)): 5%
Activity [10, 18]: 97%
Activity ([10]; 25 g/ha, RME (0.25%)): 20%
Activity [10, 16]: 100%
Activity ([5]; 12.5 g/ha, RME (0.25%)): 10%
Activity [5, 18]: 93%
Activity ([5]; 25 g/ha, RME (0.25%)): 35%
Activity [5, 16]: 99%
Activity ([6]; 12.5 g/ha, RME (0.25%)): 10%
Activity [6, 18]: 75%
Activity ([6]; 25 g/ha, RME (0.25%)): 30%
Activity [6, 16]: 93%

CCc1cc(Cl)cc(OC)c1-c1c(O)n2n(c1=O)CCCC2 [I-8-a-1]
Activity ([10]; 12.5 g/ha, RME (0.25%)): 10%
Activity [10, 18]: 70%
Activity ([10]; 25 g/ha, RME (0.25%)): 80%
Activity [10, 16]: 95%
Activity ([5]; 12.5 g/ha, RME (0.25%)): 30%
Activity [5, 18]: 70%
Activity ([5]; 25 g/ha, RME (0.25%)): 40%
Activity [5, 16]: 80%
Activity ([6]; 12.5 g/ha, RME (0.25%)): 5%
Activity [6, 18]: 50%
Activity ([6]; 25 g/ha, RME (0.25%)): 50%
Activity [6, 16]: 70%

CCc1cc(C)cc(CC)c1-c1c(OC(=O)C(C)(C)C)n2n(c1=O)CCOCC2 [I-8-b-1]
Activity ([10]; 25 g/ha, RME (0.25%)): 60%
Activity [10, 16]: 93%
Activity ([10]; 50 g/ha, RME (0.25%)): 97%
Activity [10, 17]: 100%
Activity ([5]; 25 g/ha, RME (0.25%)): 30%
Activity [5, 16]: 80%
Activity ([5]; 50 g/ha, RME (0.25%)): 70%
Activity ([5]; 50 g/ha, RME (0.25%) + AMS (0.33 g/l)): 90%
Activity ([5]; 50 g/ha, RME (0.25%) + AMS (1 g/l)): 95%
Activity [5, 17]: 97%
Activity ([6]; 25 g/ha, RME (0.25%)): 20%
Activity ([6]; 25 g/ha, RME (0.25%) + AMS (0.33 g/l)): 70%
Activity ([6]; 25 g/ha, RME (0.25%) + AMS (1 g/l)): 50%
Activity [6, 16]: 80%
Activity ([6]; 50 g/ha, RME (0.25%)): 90%
Activity [6, 17]: 95%
